Measured values reported in patent US20260191853A1, “METHOD OF TREATING DRUG-INDUCED BRADYARRHYTHMIA” (OSAKA UNIVERSITY, priority 2022, published 2026).
Entries after “also recorded” stand apart in the source; their conditions may differ.

Assays:
Hartley guinea pigs = experiment: Preventive effect on siponimod-induced bradyarrhythmia in isoflurane-anesthetized guinea pig model; assay type: in vivo
Description: A solvent or compound (I) (free form) was administered by oral gavage at a dose of 0.3. 1, or 3 mg/kg (volume: 5 mL/kg) to Hartley guinea pigs (7 to 10 weeks old, male, available from Japan SLC, Inc.). After completion of the administration, each animal was subjected to anesthetic induction by inhalation of isoflurane (available from Pfizer Japan Inc.), and the animal was held on an operating table having a heater function. The trachea was incised, and a tracheal cannula (KN-375, available from Natsume Seisakusho Co., Ltd.) was inserted. The tracheal cannula was connected to a ventilator (SN-480-7, available from Shinano Seisakusho Co., Ltd.), and artificial respiration was controlled by supplying 100% oxygen at a volume of 10 mL and a ventilation rate of 60 times/minute. The solvent used was 0.5 w/v % methyl cellulose 400 solution (available from FUJIFILM Wako Pure Chemical Corporation). Isoflurane (available from Pfizer Japan Inc.) anesthesia (about 1 to 4%, carrier gas: 100% oxygen) was used for maintenance of anesthesia. A catheter (BD intramedic polyethylene tubing PE50, available from Becton, Dickinson and Company) charged with 50 units/mL heparin (available from AY PHARMACEUTICALS CO., LTD.) was inserted into each of the carotid artery and the jugular vein and placed in the blood vessel. Systemic blood pressure was measured with a high-sensitivity DC amplifier (AD-611J, available from NIHON KOHDEN CORPORATION) via the catheter placed in the carotid artery. Electrodes were attached to the body surface, and a body surface electrocardiogram was measured with a high-sensitivity amplifier (AB-611J, available from NIHON KOHDEN CORPORATION). Blood pressure and electrocardiogram data were acquired and analyzed with PowerLab/Labchart system (available from ADInstruments). Analysis items are systolic blood pressure, diastolic blood pressure, average blood pressure, heart rate, P-wave width, PR interval, QRS width, QT interval, and corrected QT interval. Corrected QT interval was calculated using the Fridericia formula (QTc=QT interval/RR interval^1/3). After stabilization of each parameter, siponimod (synthesized according to WO 2017/120124) was continuously administered intravenously at 0.01 mg/kg for 10 minutes via the catheter placed in the jugular vein, followed by observation of the presence or absence of the onset of bradyarrhythmia for 60 minutes. The solvent used was a solution prepared by mixing of Polyethylene Glycol 400 (available from KANTO CHEMICAL CO., INC.) and dimethyl sulfoxide (available from FUJIFILM Wako Pure Chemical Corporation) at 9: 1 (volume ratio). Data were recorded and blood was collected 5, 10, 15, 20, 30, and 60 minutes after initiation of administration of siponimod. The observation was terminated 60 minutes after initiation of the administration, and the animal was euthanized by exsanguination or intravenous administration of a large amount of saturated potassium chloride solution under isoflurane anesthesia. Data were analyzed for atrial beating rate over time, ventricular beating rate over time, electrocardiographic parameters, the presence or absence of the onset of atrioventricular block, and plasma concentrations of compound (I) and siponimod. The plasma was collected by centrifuging the blood and cryopreserved at about −20° C. After thawing of the plasma, plasma drug concentrations were measured using LC/MS/MS after deproteinization with acetonitrile.
In FIG. 3, the measurements are shown as mean±standard error. Abbreviations, etc. are as follows. • (I): compound (I) • Atrioventricular block: the presence or absence of atrioventricular block • (x denotes second- or third-degree atrioventricular block) • PR & QRS: atrioventricular conduction time and ventricular activation time • QT & QTcF: ventricular repolarization time and heart rate-corrected ventricular repolarization time • Plasma concentration: the plasma concentration of siponimod or compound (I)

[1] = test system: human iPS cell-derived atrial myocytes; experiment: Siponimod-induced decrease in beating rate in human iPS cell-derived atrial myocytes (multi-electrode array); assay type: cell-based; conditions: 0.1 μM compound (I) added after 0.1 μM siponimod, observed 10 minutes; FIG. 6
Description: Cryopreserved human iPS cell-derived atrial myocytes (Human iPSC-derived atrial cardiomyocytes, available from Axol Bioscience) were thawed and seeded at 1,400,000 cells/well on a fibronectin-coated 6-well plate, followed by culturing in an incubator at 37° C. and 5% CO2 for 11 days. During the culture, the entire amount of medium was changed every other day. After the elapse of 11 days, human iPS cell-derived atrial myocytes that started beating were removed from the plate and recovered with TrypLE Select Enzyme (available from ThermoFisher Scientific). The atrial myocytes were seeded at 25,000 cells/2 μL on a fibronectin-coated 6-well MEA Chip (60-6well MEA200/30iR-Ti-tcr, available from Multi Channel Systems) and cultured in an incubator at 37° C. and 5% CO2 for one hour. Thereafter, 400 μL of medium was added and cultured in an incubator at 37° C. and 5% CO2 for 13 days. During the culture, a half amount of the medium was changed every other day. After the elapse of […], the MEA Chip was set in a multi-electrode array system (MEA2100, available from Multi Channel Systems) to thereby obtain extracellular potentials under spontaneous beating. […] Data were analyzed with Labchart System (available from ADInstruments).
In FIG. 6, the measurements are shown as mean±standard error, and (I) denotes compound (I).

Structure (SMILES): Cc1cc(CO)nc2cc3c(cc12)OC(C)(C)[C@H](O)[C@H]3NCCc1ccccc1 [Compound (I), (3R,4S)-7-Hydroxymethyl-2,2,9-trimethyl-4-(phenethylamino)-3,4-dihydro-2H-pyrano[2,3-g]quinoline-3-ol]
- cases in which siponimod-induced atrioventricular block was not observed (Hartley guinea pigs; 0.3 mg/kg oral gavage, four cases per group): 50%
- cases in which siponimod-induced atrioventricular block was not observed (Hartley guinea pigs; 1 mg/kg oral gavage, four cases per group): 75%
- cases in which siponimod-induced atrioventricular block was suppressed (Hartley guinea pigs; 3 mg/kg oral gavage, four cases per group): 100%
- siponimod-induced bradycardia (ventricular beating rate / heart rate) (Hartley guinea pigs; 3 mg/kg oral gavage, siponimod 0.01 mg/kg i.v.): completely restored; also recorded: completely prevented
- onset of siponimod-induced bradyarrhythmia (atrioventricular block) (Hartley guinea pigs; 0.3, 1, 3 mg/kg oral gavage, FIG. 3 and FIG. 4): prevented the onset of siponimod-induced bradyarrhythmia (atrioventricular block) in a dose-dependent manner
- siponimod-induced bradycardia (ventricular beating rate / heart rate) (Hartley guinea pigs; compound (I) 0.3, 1, 3 mg/kg oral gavage before siponimod 0.01 mg/kg i.v. over 10 min, FIG. 3): improved in a dose-dependent manner; also recorded: prevented a reduction in heart rate
- siponimod-induced prolongation of QT time (Hartley guinea pigs; compound (I) oral gavage 0.3-3 mg/kg): almost completely suppressed
- effect on siponimod-induced decrease in beating rate [1]: increased the beating rate and improved bradyarrhythmia
